For one test, the system named is the used strains. Briefly: Antibacterial activity (MIC), strains not specified. In kind it is cell-based. The conditions noted are these: concentrations tested; results not shown. As for the experimental part: The minimum inhibitory concentration (MIC) for each compound was determined by broth microdilution method in a 96-well plate according to the Clinical and Laboratory Standard Institute (CLSI) guidelines. The medium used was MHB II. […] DMSO was used in subinhibitory concentrations (1% v/v). The MIC was determined by visual inspection.

The next test deals with E. faecalis B3/101. Briefly: Synergy with vancomycin (antibiotic MIC in presence of compound). In kind it is cell-based, Enterococcus faecalis. The text has this: The referred library of thioxanthones was initially tested for their antimicrobial activity against six bacterial strains: the Gram-negative Escherichia coli ATCC 25922, Pseudomonas aeruginosa ATCC 27853 and Salmonella enterica serovar Typhimurium SL1344 (SE03), with the acrA gene deleted, and the Gram-positive Staphylococcus aureus ATCC 29213, Enterococcus faecalis ATCC 29212 and the methicillin and ofloxacin-resistant clinical isolate S. aureus 272123. For the synergy assay, two clinically relevant isolates were used: the extended-spectrum β-lactamase (ESBL)-producing E. coli SA/2 [23] and the vancomycin-resistant E. faecalis (VRE) B3/101 [23]. The antibiotics used were cefotaxime (CTX) and vancomycin (VAN), respectively.
The combined effect of the compounds and clinically relevant antimicrobial drugs was evaluated by determining the antibiotic’s MIC in the presence of each compound. […] The antibiotic tested was serially diluted, whereas the concentration of each compound was kept fixed. In the case of compound 12, the concentration used was 8 µg/mL. For all other compounds, the concentration used was 64 µg/mL. Antibiotic MICs were determined as described above.

Experimental findings from PMC8232621, “Antimicrobial Activity of a Library of Thioxanthones and Their Potential as Efflux Pump Inhibitors” (Pharmaceuticals, 2021) are described below.

Several values for one entry are separate records, joined by “and”; a condition that tells them apart may be missing. Equal values may be shown once.

Consider `NS(=O)(=O)c1ccc(C(=O)O)cc1` [4-sulfamoylbenzoic acid], for which the MIC entry with the used strains is “did not display an observable MIC”. On to `CN[C@H](CC(C)C)C(=O)N[C@H]1C(=O)N[C@@H](CC(N)=O)C(=O)N[C@H]2C(=O)N[C@H]3C(=O)N[C@H](C(=O)N[C@H](C(=O)O)c4cc(O)cc(O)c4-c4cc3ccc4O)[C@H](O)c3ccc(c(Cl)c3)Oc3cc2cc(c3O[C@@H]2O[C@H](CO)[C@@H](O)[C@H](O)[C@H]2O[C@H]2C[C@](C)(N)[C@H](O)[C@H](C)O2)Oc2ccc(cc2Cl)[C@H]1O` [VAN, vancomycin], for which the “VAN MIC (antibiotic alone)” value in the test with E. faecalis B3/101 was 707 µM and 1024 µg/mL.
